Test results from the CheMixHub viscosity set.

Assay: xn = mol fraction of the nth substance listed

CCCC#N + CCCCO
viscosity [mPa·s], 101.33 kPa
Details | x2 = 0.1001 | x2 = 0.1981 | x2 = 0.2994 | x2 = 0.3979 | x2 = 0.4953 | x2 = 0.5961 | x2 = 0.6981 | x2 = 0.7984 | x2 = 0.8991
298.15 K | 0.58 | 0.623 | 0.684 | 0.764 | 0.869 | 1.012 | 1.211 | 1.482 | 1.885
308.15 K | 0.515 | 0.547 | 0.596 | 0.66 | 0.741 | 0.852 | 1.003 | 1.208 | 1.506
318.15 K | 0.461 | 0.487 | 0.526 | 0.575 | 0.64 | 0.726 | 0.842 | 1.002 | 1.221

Brc1ccccc1 + CCCCOC(C)=O
viscosity [mPa·s], 101 kPa
Details | 298.15 K | 308.15 K
x2 = 0.0489 | 0.919 | 0.88
x2 = 0.1488 | 0.737 | 0.746
x2 = 0.2514 | 0.615 | 0.649
x2 = 0.3499 | 0.54 | 0.584
x2 = 0.4493 | 0.495 | 0.541
x2 = 0.4965 | 0.482 | 0.526
x2 = 0.5512 | 0.474 | 0.515
x2 = 0.6501 | 0.474 | 0.505
x2 = 0.7497 | 0.496 | 0.51
x2 = 0.8499 | 0.542 | 0.53
x2 = 0.9226 | 0.595 | 0.556

CCCCn1cc[n+](C)c1.O=S(=O)([N-]S(=O)(=O)C(F)(F)F)C(F)(F)F + CCCCn1cc[n+](C)c1.F[B-](F)(F)F
Details | viscosity [mPa·s]
323.15 K, 100 kPa, x1 = 0.751 | 23.85

CCCCn1cc[n+](C)c1.O=S(=O)([N-]S(=O)(=O)C(F)(F)F)C(F)(F)F + CCCCn1cc[n+](C)c1.F[P-](F)(F)(F)(F)F
Details | viscosity [mPa·s]
318.15 K, 100 kPa, x1 = 0.25 | 58.45

C1COCCO1 + CCCO
viscosity [mPa·s]
Details | 298.15 K | 303.15 K | 308.15 K | 313.15 K
101 kPa, x1 = 0.4 | 1.131 | – | – | –
101.3 kPa, x1 = 0.0923 | 1.609 | 1.42 | 1.289 | 1.179
101.3 kPa, x1 = 0.122 | 1.499 | 1.332 | 1.209 | 1.1
101.3 kPa, x1 = 0.2236 | 1.284 | 1.15 | 1.057 | 0.9732
101.3 kPa, x1 = 0.2793 | 1.223 | 1.084 | 0.9926 | 0.9135
101.3 kPa, x1 = 0.3323 | 1.158 | 1.065 | 0.9698 | 0.8894
101.3 kPa, x1 = 0.3964 | 1.106 | 1.014 | 0.9229 | 0.8503
101.3 kPa, x1 = 0.4347 | 1.057 | 0.9719 | 0.8966 | 0.8243
101.3 kPa, x1 = 0.5294 | 1.04 | 0.9553 | 0.8788 | 0.8135
101.3 kPa, x1 = 0.5833 | 1.028 | 0.949 | 0.8777 | 0.8149
101.3 kPa, x1 = 0.6365 | 1.028 | 0.9503 | 0.8792 | 0.8185
101.3 kPa, x1 = 0.6538 | 1.033 | 0.9567 | 0.8791 | 0.8196
101.3 kPa, x1 = 0.7379 | 1.051 | 0.9745 | 0.9054 | 0.8374
101.3 kPa, x1 = 0.8132 | 1.085 | 0.9921 | 0.9184 | 0.8578
101.3 kPa, x1 = 0.8989 | 1.117 | 1.028 | 0.9533 | 0.887

C1=C[C@H]2[C@@H](C1)[C@H]1C=C[C@@H]2C1 + CCO
viscosity [mPa·s], 101.2 kPa
Details | x1 = 0.1001 | x1 = 0.1997 | x1 = 0.2973 | x1 = 0.4003 | x1 = 0.501 | x1 = 0.6023 | x1 = 0.699 | x1 = 0.8013 | x1 = 0.9002
293.15 K | 1.493 | 1.788 | 2.076 | 2.381 | 2.68 | 3.001 | 3.332 | 3.701 | 4.073
303.15 K | 1.232 | 1.449 | 1.657 | 1.879 | 2.098 | 2.339 | 2.595 | 2.879 | 3.161
313.15 K | 1.038 | 1.209 | 1.369 | 1.541 | 1.718 | 1.911 | 2.111 | 2.345 | 2.579

C1COCCO1 + CCO
viscosity [mPa·s]
Details | 293.15 K | 298.15 K | 303.15 K | 308.15 K
101 kPa, x1 = 0.0584 | – | 0.992 | – | –
101 kPa, x1 = 0.1156 | – | 0.938 | – | –
101 kPa, x1 = 0.1834 | – | 0.884 | – | –
101 kPa, x1 = 0.2678 | – | 0.86 | – | –
101 kPa, x1 = 0.3 | – | 0.9243 | – | –
101 kPa, x1 = 0.3438 | – | 0.849 | – | –
101 kPa, x1 = 0.4473 | – | 0.863 | – | –
101 kPa, x1 = 0.5589 | – | 0.885 | – | –
101 kPa, x1 = 0.689 | – | 0.933 | – | –
101 kPa, x1 = 0.8264 | – | 1.029 | – | –
101 kPa, x2 = 0.1798 | – | 1.027 | 0.9544 | 0.8897
101 kPa, x2 = 0.324 | – | 0.9634 | 0.8928 | 0.8361
101 kPa, x2 = 0.4539 | – | 0.9317 | 0.8654 | 0.8124
101 kPa, x2 = 0.5608 | – | 0.9336 | 0.8661 | 0.8072
101 kPa, x2 = 0.6591 | – | 0.9547 | 0.8825 | 0.8181
101 kPa, x2 = 0.7972 | – | 1.025 | 0.9451 | 0.8639
101 kPa, x2 = 0.8858 | – | 1.102 | 1.008 | 0.919
101 kPa, x2 = 0.9427 | – | 1.179 | 1.068 | 0.9697
101.33 kPa, x1 = 0.0703 | 1.069 | 0.96 | 0.8879 | 0.8147
101.33 kPa, x1 = 0.1455 | 0.9889 | 0.8885 | 0.8285 | 0.7595
101.33 kPa, x1 = 0.2259 | 0.9468 | 0.8529 | 0.7902 | 0.7308
101.33 kPa, x1 = 0.3126 | 0.9216 | 0.8387 | 0.7727 | 0.7174
101.33 kPa, x1 = 0.4045 | 0.9225 | 0.8391 | 0.7751 | 0.7182
101.33 kPa, x1 = 0.5051 | 0.9277 | 0.8469 | 0.7819 | 0.7278
101.33 kPa, x1 = 0.6163 | 0.9582 | 0.8803 | 0.8165 | 0.7622
101.33 kPa, x1 = 0.7297 | 1.029 | 0.9425 | 0.8647 | 0.8101
101.33 kPa, x1 = 0.86 | 1.135 | 1.044 | 0.9699 | 0.8938
101.33 kPa, x2 = 0.2101 | – | – | 0.984 | –
101.33 kPa, x2 = 0.5822 | – | – | 0.825 | –
101.33 kPa, x2 = 0.7056 | – | – | 0.798 | –
101.33 kPa, x2 = 0.9653 | – | – | 0.927 | –

COC(=O)CC(=O)OC + CCO
303.15 K, 101 kPa
Details | viscosity [mPa·s]
x1 = 0.0532 | 0.972
x1 = 0.1129 | 0.966
x1 = 0.1787 | 0.978
x1 = 0.2533 | 0.998
x1 = 0.337 | 1.037
x1 = 0.4329 | 1.097
x1 = 0.5426 | 1.181
x1 = 0.6705 | 1.314
x1 = 0.8207 | 1.513

OCC(F)(F)F + CCO
viscosity [mPa·s]
Details | 298.15 K | 303.15 K | 308.15 K | 313.15 K | 318.15 K | 323.15 K
100 kPa, x1 = 0.1081 | 1.09 | 1 | 0.92 | 0.84 | 0.77 | 0.71
100 kPa, x1 = 0.2039 | 1.09 | 0.99 | 0.91 | 0.83 | 0.76 | 0.7
100 kPa, x1 = 0.304 | 1.1 | 0.99 | 0.91 | 0.83 | 0.76 | 0.7
100 kPa, x1 = 0.3989 | 1.12 | 1.01 | 0.92 | 0.84 | 0.77 | 0.7
100 kPa, x1 = 0.508 | 1.16 | 1.05 | 0.95 | 0.86 | 0.79 | 0.72
100 kPa, x1 = 0.601 | 1.22 | 1.1 | 0.99 | 0.9 | 0.82 | 0.75
100 kPa, x1 = 0.7087 | 1.31 | 1.18 | 1.06 | 0.96 | 0.87 | 0.79
100 kPa, x1 = 0.7984 | 1.4 | 1.26 | 1.12 | 1.02 | 0.92 | 0.83
100 kPa, x1 = 0.9032 | 1.56 | 1.38 | 1.23 | 1.11 | 0.99 | 0.9
101 kPa, x1 = 0.01998 | 1.104 | – | – | – | – | –
101 kPa, x1 = 0.0384 | 1.102 | – | – | – | – | –
101 kPa, x1 = 0.05967 | 1.098 | – | – | – | – | –
101 kPa, x1 = 0.1122 | 1.097 | – | – | – | – | –
101 kPa, x1 = 0.1523 | 1.089 | – | – | – | – | –
101 kPa, x1 = 0.2584 | 1.082 | – | – | – | – | –
101 kPa, x1 = 0.3059 | 1.105 | – | – | – | – | –
101 kPa, x1 = 0.5638 | 1.215 | – | – | – | – | –
101 kPa, x1 = 0.8074 | 1.427 | – | – | – | – | –

Brc1ccccc1 + CCOC(C)=O
viscosity [mPa·s], 101 kPa
Details | 298.15 K | 308.15 K
x2 = 0.0463 | 0.997 | 0.926
x2 = 0.1501 | 0.906 | 0.844
x2 = 0.2468 | 0.829 | 0.775
x2 = 0.3482 | 0.756 | 0.707
x2 = 0.4571 | 0.686 | 0.641
x2 = 0.5073 | 0.656 | 0.612
x2 = 0.5465 | 0.633 | 0.591
x2 = 0.6468 | 0.58 | 0.539
x2 = 0.75 | 0.53 | 0.49
x2 = 0.848 | 0.487 | 0.447
x2 = 0.9469 | 0.448 | 0.407

O=C1CCCO1 + CCOC(C)=O
298.15 K, 101.33 kPa
Details | viscosity [mPa·s]
x2 = 0.0501 | 1.575
x2 = 0.1023 | 1.453
x2 = 0.1528 | 1.345
x2 = 0.2005 | 1.249
x2 = 0.2542 | 1.152
x2 = 0.3039 | 1.071
x2 = 0.4046 | 0.926
x2 = 0.4546 | 0.864
x2 = 0.5006 | 0.81
x2 = 0.5528 | 0.755
x2 = 0.6019 | 0.707
x2 = 0.6994 | 0.622
x2 = 0.75 | 0.583
x2 = 0.7981 | 0.547
x2 = 0.849 | 0.513
x2 = 0.902 | 0.481
x2 = 0.9504 | 0.45
